Assay results: patent US20230278972A1, “SUBSTITUTED HALOALKYL SULFONANILIDE HERBICIDES” (FMC Corporation, priority 2020, published 2023)

What was measured:
Type in all cases: in vivo
rice (Oryza sativa) = experiment: Test B1 flooded paddy test, rice; conditions: 250 g ai/ha, Flood, applied to paddy water, 2-leaf stage, visually evaluated after 10 to 14 days
Text: (§1) A dash (-) response means no test result.

corn (Zea mays) [1] = experiment: Test A1 postemergence, corn; conditions: Postemergence
Summary of the method: (§2)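 Pre: seeds in loam/sand blend, directed soil spray. Post: potted plants, same soil, 2–10 cm, 1–2 leaf stage. Chemicals in non-phytotoxic solvent + surfactant for both.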

[2] = system: Ryegrass, Italian (Italian ryegrass, Lolium multiflorum); experiment: Test A1 preemergence, Ryegrass, Italian
Summary of the method: as §2

[3] = system: galium (catchweed bedstraw, Galium aparine); experiment: Test A1 postemergence, galium; conditions: for Plant response rating, Galium: Postemergence
Summary of the method: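 Test compounds were formulated in a non-phytotoxic solvent mixture containing a surfactant. For preemergence, seeds sown in a loam soil–sand blend received a directed soil spray. For postemergence, potted plants in the same soil, 2 to 10 cm tall at the one- to two-leaf stage, were sprayed.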

[4] = system: ducksalad (Heteranthera limosa); experiment: Test B1 flooded paddy test, ducksalad; conditions: 250 g ai/ha, Flood, applied to paddy water, 2-leaf stage, visually evaluated after 10 to 14 days
Text: as §1

soybean (Glycine max) = experiment: Test A1 preemergence, soybean
Summary of the method: as §2

[5] = system: Foxtail, Giant (giant foxtail, Setaria faberi); experiment: Test A1 preemergence, Foxtail, Giant
Summary of the method: as §2

corn (Zea mays) [6] = experiment: Test A1 preemergence, corn
Summary of the method: (§3)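 Both timings started from seed in a loam-sand blend. Preemergence pots got a directed soil application immediately; postemergence pots were sprayed when seedlings had one or two leaves and stood 2–10 cm. Each compound was prepared in a non-phytotoxic solvent plus surfactant.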

[7] = system: ragweed (common ragweed, Ambrosia artemisiifolia); experiment: Test A1 postemergence, ragweed; conditions: for Plant response rating, Ragweed: Postemergence
Summary of the method: as §3

[8] = 31 g ai/ha, 0 to 100 scale (0 no effect, 100 complete control), 10 days
[9] = 31 g ai/ha, 0 to 100 scale (0 no effect, 100 complete control)
[10] = 125 g ai/ha, 0 to 100 scale, 0 no effect, 100 complete control
[11] = 31 g ai/ha, postemergence, 0 to 100 scale (0 no effect, 100 complete control)

| Structure (SMILES) | Plant response rating, Rice (0 to 100 scale, 0 is no effect, 100 is complete control) (rice (Oryza sativa)) | Plant response rating, Corn (corn (Zea mays) [1]; [8]) | Plant response rating, Corn (corn (Zea mays) [1]; 125 g ai/ha, 0 to 100 scale) | Plant response rating, Ryegrass, Italian [2, 9] | Plant response rating, Ryegrass, Italian [2, 10] | Galium plant response rating [3, 11] | Plant response rating, Galium ([3]; 125 g ai/ha, 0 to 100 scale) | Plant response rating, Ducksalad (0 to 100 scale, 0 is no effect, 100 is complete control) [4] | Plant response rating, Soybean (soybean (Glycine max); [9]) | Plant response rating, Soybean (soybean (Glycine max); [10]) | Plant response rating, Foxtail, Giant [5, 9] | Plant response rating, Foxtail, Giant [5, 10] | Plant response rating, Corn (corn (Zea mays) [6]; [9]) | Plant response rating, Corn (corn (Zea mays) [6]; [10]) | Ragweed plant response rating [7, 11] | Plant response rating, Ragweed ([7]; 125 g ai/ha, 0 to 100 scale) | Plant response rating, Galium [3, 8] | Plant response rating, Ragweed [7, 8] |
| --- | --- | --- | --- | --- | --- | --- | --- | --- | --- | --- | --- | --- | --- | --- | --- | --- | --- | --- |
| Cc1c(C(=O)N2C[C@@H](C)O[C@H](C)C2)cc(N(COC(=O)C(C)(C)C)S(=O)(=O)C(F)(F)F)c(C)c1C (relative stereo) [Compound 373] | 20 | 0 | 40 | 0 | 0 | 50 | 70 | 85 | 0 | 10 | 0 | 90 | 0 | 20 | 50 | 80 |  |  |
| Cc1cc(C)c(N(COC(=O)C(C)(C)C)S(=O)(=O)C(F)(F)F)cc1C1=NOC2CCCCCC12 (single isomer, unassigned) [Compound 294] | 0 | 10 | 20 | 40 | 90 |  | 70 | 70 | 0 | 0 | 0 | 20 | 0 | 0 |  | 80 | 60 | 30 |
| Cc1cc(C)c(-n2nccc(C)c2=O)cc1NS(=O)(=O)C(F)(F)F [Compound 281] | 0 | 0 | 0 | 0 | 40 |  | 0 | 0 | 0 | 80 | 0 | 100 | 0 | 0 |  | 70 | 0 | 0 |
| Cc1c(NS(=O)(=O)C(F)(F)F)cc(C(=O)N(C)C)c(C)c1Cl [Compound 287] | 0 | 0 | 0 | 70 | 90 |  | 0 | 75 | 0 | 30 | 0 | 30 | 0 | 0 |  | 70 | 0 | 60 |
| Cc1c(NS(=O)(=O)C(F)(F)F)cc(C(=O)N(C)C)c(C)c1C [Compound 288] | 0 | 0 | 10 | 0 | 0 |  | 0 | 60 | 30 | 40 | 20 | 90 | 0 | 0 |  | 80 | 0 | 30 |
| Cc1c(NS(=O)(=O)C(F)(F)F)cc(C(=O)N2CCOCC2)c(C)c1Cl [Compound 290] | 0 | 0 | 20 | 30 | 60 |  | 90 | 65 | 0 | 0 | 0 | 90 | 0 | 20 |  | 70 | 80 | 60 |
| Cc1cc(C)c(N(C(=O)OC(C)C)S(=O)(=O)C(F)(F)F)cc1C1=NOC2CCCC12 (centres unmarked) [Compound 295] | 0 | 0 | 0 | 40 | 70 |  | 60 | 0 | 0 | 0 | 0 | 40 | 0 | 0 |  | 70 | 50 | 50 |
| Cc1cc(C)c(N(C(=O)OCC(C)C)S(=O)(=O)C(F)(F)F)cc1C1=NOC2CCCC12 (centres unmarked) [Compound 299] | 0 | 0 | 0 | 50 | 60 |  | 60 | 55 | 0 | 0 | 0 | 40 | 0 | 0 |  | 70 | 40 | 40 |
| Cc1cc(C)c(N(COC(=O)C(C)(C)C)S(=O)(=O)C(F)(F)F)cc1C1=NOC2COCC12 (centres unmarked) [Compound 301] | 0 | 0 | 30 | 20 | 90 |  | 90 | 50 | 0 | 20 | 10 | 90 | 0 | 10 |  | 70 | 70 | 60 |
| Cc1cc(F)c(NS(=O)(=O)C(F)(F)F)cc1C1=NOC2(CCCC2)C1 [Compound 303] | 0 | 0 | 40 | 50 | 100 |  | 90 | 0 | 0 | 0 | 80 | 100 | 0 | 90 |  | 80 | 60 | 30 |
| CCc1cc(C)c(NS(=O)(=O)C(F)(F)F)cc1C1=NOC2CCCC12 (centres unmarked) [Compound 305] | 0 | 0 | 0 | 40 | 90 |  | 60 | 90 | 0 | 40 | 20 | 90 | 10 | 90 |  | 60 | 50 | 0 |
